# Laboratory results reported in ChEMBL document CHEMBL1201862, “PubChem BioAssay data set” (2004).
#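 Cultured in 96-well plates, cells were exposed to test compound for 48 hours across five concentrations. Abbreviation: GI50, concentration required for 50% inhibition of growth.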 Calls of active or inactive are those of the source. Rule as the data show it: active = GI50 up to about 1.1 µM and inactive = higher.
# How the values were obtained:
# Experiment in all cases: DTP human tumour cell line panel, 48 h
# PC-3 = tested on: PC-3
# IGROV-1 = tested on: IGROV-1
# COLO 205 = tested on: COLO 205
# Malme-3M = tested on: Malme-3M
# SNB-75 = tested on: SNB-75
# LOX IMVI = tested on: LOX IMVI
# HCT-116 = tested on: HCT-116
# U-251 = tested on: U-251
# MDA-MB-435 = tested on: MDA-MB-435
# MOLT-4 = tested on: MOLT-4
# OVCAR-5 = tested on: OVCAR-5
# SN12C = tested on: SN12C
# SW-620 = tested on: SW-620
# MDA-N = tested on: MDA-N
# SK-MEL-5 = tested on: SK-MEL-5
# MCF7 = tested on: MCF7
# HT-29 = tested on: HT-29
# NCI-H23 = tested on: NCI-H23
# A549 = tested on: A549
# OVCAR-4 = tested on: OVCAR-4
# DU-145 = tested on: DU-145
# A498 = tested on: A498
# T47D = tested on: T47D
# NCI-H226 = tested on: NCI-H226
# MDA-MB-231 = tested on: MDA-MB-231
# RXF 393 = tested on: RXF 393
# UO-31 = tested on: UO-31
# UACC-62 = tested on: UACC-62
# SK-MEL-28 = tested on: SK-MEL-28
# NCI/ADR-RES = tested on: NCI/ADR-RES
# UACC-257 = tested on: UACC-257
# OVCAR-8 = tested on: OVCAR-8
# CCRF-CEM = tested on: CCRF-CEM
# SK-MEL-2 = tested on: SK-MEL-2
# HOP-92 = tested on: HOP-92
# NCI-H460 = tested on: NCI-H460
# EKVX = tested on: EKVX
# M14 = tested on: M14
# HL-60 = tested on: HL-60
# NCI-H522 = tested on: NCI-H522
# K562 = tested on: K562
# CAKI-1 = tested on: CAKI-1
# SF-295 = tested on: SF-295
# 786-0 = tested on: 786-0
# ACHN = tested on: ACHN
# KM12 = tested on: KM12
# HCT-15 = tested on: HCT-15
# HOP-62 = tested on: HOP-62
# SR = tested on: SR
# SK-OV-3 = tested on: SK-OV-3
# SF-539 = tested on: SF-539
# SNB-19 = tested on: SNB-19
# SF-268 = tested on: SF-268
# OVCAR-3 = tested on: OVCAR-3
# HCC 2998 = tested on: HCC 2998
# TK-10 = tested on: TK-10
# Hs-578T = tested on: Hs-578T
# RPMI-8226 = tested on: RPMI-8226
structure (smiles),measurement,setting,value
O=[N+]([O-])c1cnc(N(CCO)CCO)s1,GI50,PC-3,> 100 µM (inactive)
same,GI50,IGROV-1,> 100 µM (inactive)
same,GI50,COLO 205,> 100 µM (inactive)
same,GI50,Malme-3M,> 100 µM (inactive)
same,GI50,SNB-75,< 0.01 µM (active)
same,GI50,LOX IMVI,> 100 µM (inactive)
same,GI50,HCT-116,> 100 µM (inactive)
same,GI50,U-251,> 100 µM (inactive)
same,GI50,MDA-MB-435,> 100 µM (inactive)
same,GI50,MOLT-4,> 100 µM (inactive)
same,GI50,OVCAR-5,> 100 µM (inactive)
same,GI50,SN12C,> 100 µM (inactive)
same,GI50,SW-620,> 100 µM (inactive)
same,GI50,MDA-N,> 100 µM (inactive)
same,GI50,SK-MEL-5,> 100 µM (inactive)
same,GI50,MCF7,> 100 µM (inactive)
same,GI50,HT-29,> 100 µM (inactive)
same,GI50,NCI-H23,> 100 µM (inactive)
same,GI50,A549,> 100 µM (inactive)
same,GI50,OVCAR-4,> 100 µM (inactive)
same,GI50,DU-145,> 100 µM (inactive)
same,GI50,A498,> 100 µM (inactive)
same,GI50,T47D,> 100 µM (inactive)
same,GI50,NCI-H226,> 100 µM (inactive)
same,GI50,MDA-MB-231,> 100 µM (inactive)
same,GI50,RXF 393,> 100 µM (inactive)
same,GI50,UO-31,> 100 µM (inactive)
same,GI50,UACC-62,> 100 µM (inactive)
same,GI50,SK-MEL-28,> 100 µM (inactive)
same,GI50,NCI/ADR-RES,> 100 µM (inactive)
same,GI50,UACC-257,> 100 µM (inactive)
same,GI50,OVCAR-8,> 100 µM (inactive)
same,GI50,CCRF-CEM,79.6 µM (inactive)
same,GI50,SK-MEL-2,> 100 µM (inactive)
same,GI50,HOP-92,> 100 µM (inactive)
same,GI50,NCI-H460,> 100 µM (inactive)
same,GI50,EKVX,> 100 µM (inactive)
same,GI50,M14,> 100 µM (inactive)
same,GI50,HL-60,> 100 µM (inactive)
same,GI50,NCI-H522,> 100 µM (inactive)
same,GI50,K562,> 100 µM (inactive)
same,GI50,CAKI-1,> 100 µM (inactive)
same,GI50,SF-295,> 100 µM (inactive)
same,GI50,786-0,> 100 µM (inactive)
same,GI50,ACHN,> 100 µM (inactive)
same,GI50,KM12,> 100 µM (inactive)
same,GI50,HCT-15,> 100 µM
same,GI50,HOP-62,> 100 µM (inactive)
same,GI50,SR,> 100 µM (inactive)
same,GI50,SK-OV-3,> 100 µM (inactive)
same,GI50,SF-539,> 100 µM (inactive)
same,GI50,SNB-19,> 100 µM (inactive)
same,GI50,SF-268,> 100 µM (inactive)
same,GI50,OVCAR-3,> 100 µM (inactive)
same,GI50,HCC 2998,> 100 µM (inactive)
NCCN1CCCCCc2ccccc21,GI50,PC-3,> 10 µM (inactive)
same,GI50,IGROV-1,> 10 µM (inactive)
same,GI50,COLO 205,> 10 µM (inactive)
same,GI50,TK-10,> 10 µM (inactive)
same,GI50,Malme-3M,> 10 µM (inactive)
same,GI50,SNB-75,> 10 µM (inactive)
same,GI50,LOX IMVI,> 10 µM (inactive)
same,GI50,HCT-116,> 10 µM (inactive)
same,GI50,U-251,> 10 µM (inactive)
same,GI50,MDA-MB-435,> 10 µM (inactive)
same,GI50,MOLT-4,> 10 µM (inactive)
same,GI50,SN12C,> 10 µM (inactive)
same,GI50,SW-620,> 10 µM (inactive)
same,GI50,SK-MEL-5,> 10 µM (inactive)
same,GI50,MCF7,> 10 µM (inactive)
same,GI50,HT-29,> 10 µM (inactive)
same,GI50,NCI-H23,> 10 µM (inactive)
same,GI50,A549,> 10 µM (inactive)
same,GI50,OVCAR-4,> 10 µM (inactive)
same,GI50,DU-145,> 10 µM (inactive)
same,GI50,A498,> 10 µM (inactive)
same,GI50,T47D,> 10 µM (inactive)
same,GI50,NCI-H226,> 10 µM (inactive)
same,GI50,RXF 393,> 10 µM (inactive)
same,GI50,UO-31,> 10 µM (inactive)
same,GI50,UACC-62,> 10 µM (inactive)
same,GI50,SK-MEL-28,> 10 µM (inactive)
same,GI50,NCI/ADR-RES,> 10 µM (inactive)
same,GI50,UACC-257,> 10 µM (inactive)
same,GI50,Hs-578T,> 10 µM (inactive)
same,GI50,OVCAR-8,> 10 µM (inactive)
same,GI50,CCRF-CEM,> 10 µM (inactive)
same,GI50,SK-MEL-2,> 10 µM (inactive)
same,GI50,NCI-H460,> 10 µM (inactive)
same,GI50,EKVX,> 10 µM (inactive)
same,GI50,HL-60,> 10 µM (inactive)
same,GI50,NCI-H522,> 10 µM (inactive)
same,GI50,K562,> 10 µM (inactive)
same,GI50,CAKI-1,> 10 µM (inactive)
same,GI50,SF-295,> 10 µM (inactive)
same,GI50,786-0,> 10 µM (inactive)
same,GI50,ACHN,> 10 µM (inactive)
same,GI50,KM12,> 10 µM (inactive)
same,GI50,HCT-15,> 10 µM
same,GI50,HOP-62,> 10 µM (inactive)
same,GI50,SR,> 10 µM (inactive)
same,GI50,RPMI-8226,> 10 µM (inactive)
same,GI50,SK-OV-3,> 10 µM (inactive)
same,GI50,SF-539,> 10 µM (inactive)
same,GI50,SNB-19,> 10 µM (inactive)
same,GI50,SF-268,> 10 µM (inactive)
same,GI50,OVCAR-3,> 10 µM (inactive)
same,GI50,HCC 2998,> 10 µM (inactive)
CC[C@@H](CCCCC1CC[C@H]2CC(=O)C[C@@H]12)OC (stereo partly drawn),GI50,PC-3,> 100 µM (inactive)
same,GI50,Malme-3M,> 100 µM (inactive)
same,GI50,MDA-MB-435,> 100 µM (inactive)
same,GI50,MDA-N,> 100 µM (inactive)
same,GI50,OVCAR-4,> 100 µM (inactive)
same,GI50,UACC-62,> 100 µM (inactive)
same,GI50,Hs-578T,> 100 µM (inactive)
same,GI50,EKVX,> 100 µM (inactive)
same,GI50,M14,> 100 µM (inactive)
same,GI50,HL-60,36 µM (inactive)
same,GI50,K562,33.7 µM (inactive)
same,GI50,KM12,> 100 µM (inactive)
same,GI50,HOP-62,> 100 µM (inactive)
same,GI50,SR,> 100 µM (inactive)
same,GI50,RPMI-8226,> 100 µM (inactive)
